According to patent publication US12590062B2, “PD-1/PD-L1 inhibitors” (Gilead Sciences, Inc., priority 2017, dated 2026):

What was measured:
PD-1/PD-L1 = PD-1/PD-L1 (Homo sapiens, UniProt Q9NZQ7); assay: PD-1/PD-L1 biochemical protein-protein interaction assay (ALPHA); assay type: binding; conditions: 0.3 nM His tagged PD-L1, 2.5 nM biotinylated Fc-PD-1, 60 minutes at 25° C., read-out: IC50 PD-L1-PD-1 Alpha IC50-mono PD-L1-fcP-D1
Summary of the method: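 IC50 values derive from four-parameter fits of ALPHA signal decrease. Assay: 0.3 nM His-tagged PD-L1 with 2.5 nM biotinylated Fc-PD-1, Hepes pH 7.4 with 0.005% Tween 20 and 0.01% BSA, 60 min at 25° C, then anti-His acceptor and streptavidin donor beads.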

PD-1/PD-L1 interaction = biological target: T1, PD-1/PD-L1 interaction (Homo sapiens, UniProt Q9NZQ7); assay: PD-1/PD-L1 NFAT reporter co-culture assay; assay type: cell-based; conditions: Jurkat PD-1 NFAT-luciferase cells co-cultured with aAPC-PD-L1 CHO cells, 6 hrs at 37° C.; read-out: EC50 NFAT Luciferase
T1 construct: expressed in transfected cells; host or cells: CHO cells (aAPC-PD-L1) co-cultured with Jurkat cells overexpressing PD-1 and an NFAT-luciferase reporter
T1 sequence (Q9NZQ7 19-290): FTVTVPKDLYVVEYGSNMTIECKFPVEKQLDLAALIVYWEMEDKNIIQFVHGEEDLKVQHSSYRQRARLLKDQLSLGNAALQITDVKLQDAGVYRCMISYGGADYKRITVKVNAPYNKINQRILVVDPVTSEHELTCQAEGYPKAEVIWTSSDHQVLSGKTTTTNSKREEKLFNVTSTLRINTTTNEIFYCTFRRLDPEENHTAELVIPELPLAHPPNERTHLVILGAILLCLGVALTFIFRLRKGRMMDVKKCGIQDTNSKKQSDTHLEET
Summary of the method: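 First, CHO cells displaying anti-CD3 antibody and PD-L1 were plated overnight. Next, compound-treated PD-1 Jurkat NFAT-luciferase reporter cells in 2% FBS RPMI were added for 6 h at 37 °C. Finally, ONE-Glo luminescence was read and EC50 values fitted with a four-parameter equation.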

PD-L1 = biological target: T2, PD-L1 (Homo sapiens, UniProt Q9NZQ7); assay: PD-L1/PD-L1 dimerization biochemical protein-protein interaction assay (ALPHA); assay type: binding; conditions: compound-induced PD-L1 dimerization, head prints '1 nM' (0.5 nM His-tagged PD-L1 and 0.5 nM FLAG-tagged PD-L1), read-out: AC50 PDL1 Dimer Alpha 1 nM
T2 construct: determine if they can specifically dimerize the extracellular domains of PD-L1
T2 sequence (Q9NZQ7 19-238 limits assumed): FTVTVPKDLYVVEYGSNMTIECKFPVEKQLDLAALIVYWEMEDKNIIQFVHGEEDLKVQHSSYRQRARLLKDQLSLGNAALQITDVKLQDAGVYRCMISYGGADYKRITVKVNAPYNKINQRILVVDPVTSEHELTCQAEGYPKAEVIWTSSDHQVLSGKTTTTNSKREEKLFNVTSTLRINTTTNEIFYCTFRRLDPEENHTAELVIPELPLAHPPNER
T2 sequence (Q9NZQ7 19-238 limits assumed): as above
Summary of the method: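 After 2 h at 25 °C with compound, His- and FLAG-tagged PD-L1 ECDs (each 0.5 nM final; 25 mM Hepes pH 7.4, 150 mM NaCl) were detected by sequential anti-His acceptor and anti-FLAG donor bead incubations. Dose-response curves fitted to four-parameter equation for AC50.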

Sequence of PD-1/PD-L1 (Q9NZQ7 19-238 limits assumed): as above

## Cc1c(COc2cc(OCc3cncc(C#N)c3)c(CNC(C)(C)C(=O)O)cc2Cl)cccc1-c1cccc(-c2ccc(CN(C)C)cc2)c1Br [Example 482]
PD-1/PD-L1
  IC50: 0.064 nM
PD-1/PD-L1 interaction
  EC50: 47 nM
PD-L1
  AC50: 25.5 nM

## Cc1c(COc2cc(OCc3cncc(C#N)c3)c(CN[C@H]3CCCC[C@@H]3O)cc2Cl)cccc1-c1cccc(-c2cccc(OCCNCCO)c2)c1C [Example 367, 5-((4-chloro-2-((((1S,2S)-2-hydroxycyclohexyl)amino)methyl)-5-((3″-(2-((2-hydroxyethyl)amino)ethoxy)-2,2′-dimethyl-[1,1′:3′,1″-terphenyl]-3-yl)methoxy)phenoxy)methyl)nicotinonitrile]
PD-1/PD-L1
  IC50: 2.53 nM
PD-1/PD-L1 interaction
  EC50: 376 nM
PD-L1
  AC50: 227 nM

## COc1cc(-c2cccc(-c3cccc(-c4cnc(C5=NCCN5)c(OC)c4)c3Cl)c2Cl)cnc1C1=NCCN1 [Example 630]
PD-1/PD-L1
  IC50: 0.064 nM
PD-1/PD-L1 interaction
  EC50: 165 nM
PD-L1
  AC50: ≥ 10000 nM

## COc1nc(-c2cccc(-c3cccc4c3CC[C@@H]4Oc3nc(OC)c(CNC[C@@H]4CCC(=O)N4)cc3Cl)c2Cl)ccc1CNC[C@@H]1CCC(=O)N1 [Example 734]
PD-1/PD-L1
  IC50: 0.463 nM
PD-1/PD-L1 interaction
  EC50: 36 nM
PD-L1
  AC50: 46 nM

## COc1nc(-c2cccc(-c3cccc4c3CC[C@@H]4Oc3nc(OC)c(CN4CC[C@H](C(=O)O)C4)cc3Cl)c2Cl)ccc1CN1CC(C)(O)C1 [Example 706]
PD-1/PD-L1
  IC50: 0.064 nM
PD-1/PD-L1 interaction
  EC50: 14 nM
PD-L1
  AC50: 42.8 nM

## COc1cc(-c2cccc(-c3cccc4c3CC[C@@H]4Oc3ccc(CN[C@@](C)(CO)C(=O)O)c(OC)n3)c2Cl)ccc1C1=NCCN1 [Example 777]
PD-1/PD-L1
  IC50: 0.064 nM
PD-1/PD-L1 interaction
  EC50: 179 nM
PD-L1
  AC50: 45.8 nM

## COc1nc(O[C@H]2CCc3c(-c4cccc(-c5ccc(CN6CC7(CCC(=O)N7)C6)cc5)c4Cl)cccc32)c(Cl)cc1CN1CC2(CCC(=O)N2)C1 [Example 773]
PD-1/PD-L1
  IC50: 0.638 nM
PD-1/PD-L1 interaction
  EC50: 2100 nM
PD-L1
  AC50: ≥ 10000 nM

## COc1nc(O[C@H]2CCc3c(-c4cccc(-c5cnc(CN[C@@H]6CCC[C@@H]6O)c(OC)n5)c4Cl)cccc32)c(Cl)cc1CN[C@@](C)(CO)C(=O)O [Example 648]
PD-1/PD-L1
  IC50: 0.064 nM
PD-1/PD-L1 interaction
  EC50: 57 nM
PD-L1
  AC50: 60.9 nM

## COc1nc(-c2ccc(-c3cccc(-c4ccc(CNC[C@@H]5CCC(=O)N5)c(OC)n4)c3Cl)s2)ccc1CNC[C@@H]1CCC(=O)N1 [Example 601]
PD-1/PD-L1
  IC50: 5.27 nM
PD-1/PD-L1 interaction
  EC50: 748 nM
PD-L1
  AC50: 1130 nM

## CNCc1cc(Cl)c(O[C@H]2CCc3c(-c4cccc(-c5ccc(OCCN6CC[C@@H](O)C6)cc5)c4Cl)cccc32)nc1OCc1cncc(S(C)(=O)=O)c1 [Example 664]
PD-1/PD-L1
  IC50: 2.6 nM
PD-1/PD-L1 interaction
  EC50: ≥ 50000 nM
PD-L1
  AC50: ≥ 10000 nM

## COc1nc(O[C@H]2CCc3c(-c4cccc(-c5ccc6c(c5)C[C@@H](N)C6)c4Cl)cccc32)ccc1CN[C@@](C)(CO)C(=O)O [Example 783]
PD-1/PD-L1
  IC50: 0.259 nM
PD-1/PD-L1 interaction
  EC50: 2990 nM
PD-L1
  AC50: 823 nM

## COc1cc(-c2cccc(-c3cccc(-c4ccc(CNC[C@@H](O)CC(=O)O)c(OC)c4)c3C)c2C)ccc1CNC[C@@H](O)CC(=O)O [Example 317, (3S,3′S)-4,4′-(((3,3′″-dimethoxy-2′,2″-dimethyl-[1,1′:3′,1″:3″,1′″-quaterphenyl]-4,4′″-diyl)bis(methylene))bis(azanediyl))bis(3-hydroxybutanoic acid)]
PD-1/PD-L1
  IC50: 0.577 nM
PD-1/PD-L1 interaction
  EC50: 1100 nM
PD-L1
  AC50: 1180 nM

## Cc1c(COc2nc(OCc3cc(C#N)cc(C#N)c3)c(CNC(C)(CO)C(=O)O)cc2Cl)cccc1-c1cccc(-c2ccc(OCCNCCO)cc2)c1C (stereo not drawn) [Example 471]
PD-1/PD-L1
  IC50: 0.205 nM
PD-1/PD-L1 interaction
  EC50: 144 nM
PD-L1
  AC50: 80 nM

## COc1nc(-c2cccc(-c3cccc4c3CC[C@@H]4Oc3nc(OC)c(CN4CC[C@@H](c5nnn[nH]5)C4)cc3Cl)c2Cl)ccc1CNC[C@@H]1CCC(=O)N1 [Example 641]
PD-1/PD-L1
  IC50: 0.064 nM
PD-1/PD-L1 interaction
  EC50: 60 nM
PD-L1
  AC50: 34.7 nM

## Cc1c(COc2cc(OCc3cncc(C#N)c3)c(CN[C@@H]3CCC[C@@H]3O)cc2Cl)cccc1-c1cccc(-c2ccc3c(c2)CCC3N2CC[C@H](C(=O)O)C2)c1C (stereo partly drawn) [Example 369, (3S)-1-(5-(3′-((2-chloro-5-((5-cyanopyridin-3-yl)methoxy)-4-((((1R,2S)-2-hydroxycyclopentyl)amino)methyl)phenoxy)methyl)-2,2′-dimethyl-[1,1′-biphenyl]-3-yl)-2,3-dihydro-1H-inden-1-yl)pyrrolidine-3-carboxylic acid]
PD-1/PD-L1
  IC50: 0.164 nM
PD-1/PD-L1 interaction
  EC50: 107 nM
PD-L1
  AC50: 57.6 nM

## Cc1c(COc2cc(OCc3cncc(C#N)c3)c(CN[C@@](C)(CO)C(=O)O)cc2Cl)cccc1-c1cccc(-c2ccc(OCCNC[C@H]3CCC(=O)N3)cc2)c1C [Example 518]
PD-1/PD-L1
  IC50: 0.064 nM
PD-1/PD-L1 interaction
  EC50: 159 nM
PD-L1
  AC50: 96.1 nM

## COc1nc(-c2cccc(-c3cccc(-c4ccn5cc(CNC[C@@H]6CCC(=O)N6)nc5c4)c3Cl)c2Cl)ccc1CNC[C@@H]1CCC(=O)N1 [Example 619]
PD-1/PD-L1
  IC50: 0.159 nM
PD-1/PD-L1 interaction
  EC50: 187 nM
PD-L1
  AC50: 118 nM

## Cc1c(COc2cc(OCc3cncc(C#N)c3)c(CNC[C@@H](O)CC(=O)O)cc2Cl)cccc1-c1cccc(-n2cc(CN3CCCC3)nn2)c1C [Example 449]
PD-1/PD-L1
  IC50: 0.653 nM
PD-1/PD-L1 interaction
  EC50: 2570 nM
PD-L1
  AC50: 1490 nM

## COc1nc(-c2cccc(-c3cccc(COc4nc(OCc5cc(C#N)cc(C#N)c5)c(CNC[C@@H](O)CC(=O)O)cc4Cl)c3Cl)c2Cl)ccc1CNC[C@@H]1CCC(=O)N1 [Example 568]
PD-1/PD-L1
  IC50: 0.064 nM
PD-1/PD-L1 interaction
  EC50: 65 nM
PD-L1
  AC50: 44.3 nM

## COc1nc(O[C@H]2CCc3c(-c4cccc(-c5ccc(CNC[C@@H]6CCC(=O)N6)cc5)c4Cl)cccc32)c(Cl)cc1CN1CC(O)C1 [Example 720]
PD-1/PD-L1
  IC50: 0.262 nM
PD-1/PD-L1 interaction
  EC50: 558 nM
PD-L1
  AC50: 94.9 nM

## COc1nc(O[C@H]2CCc3c(-c4cccc(-c5cnc(CNC[C@H]6C[C@H](O)C6)c(OC)n5)c4Cl)cccc32)c(Cl)cc1CN1CC[C@H](C(=O)O)C1 [Example 711]
PD-1/PD-L1
  IC50: 0.069 nM
PD-1/PD-L1 interaction
  EC50: 69 nM
PD-L1
  AC50: 103 nM

## COc1nc(-c2cccc(-c3cccc4c3CC[C@@H]4Oc3nc(OC)c(CN4CC[C@H](C(=O)O)C4)cc3Cl)c2Cl)ccc1CN1CC(O)C1 [Example 710]
PD-1/PD-L1
  IC50: 0.064 nM
PD-1/PD-L1 interaction
  EC50: 22 nM
PD-L1
  AC50: 54.6 nM

## Cc1c(COc2cc(OCc3cncc(C#N)c3)c(CN[C@@](C)(CO)C(=O)O)cc2Cl)cccc1-c1cccc(-c2ccc(CNC[C@@H]3CCC(=O)N3)cc2)c1C [Example 575]
PD-1/PD-L1
  IC50: 0.073 nM
PD-1/PD-L1 interaction
  EC50: 34 nM
PD-L1
  AC50: 40.6 nM

## COc1nc(-c2cccc(-c3cccc(-c4ccc5c(CNC[C@@H]6CCC(=O)N6)cc(=O)n(C)c5c4)c3Cl)c2Cl)ccc1CNC[C@@H]1CCC(=O)N1 [Example 603]
PD-1/PD-L1
  IC50: 0.206 nM
PD-1/PD-L1 interaction
  EC50: 158 nM
PD-L1
  AC50: 235 nM

## COc1nc(O[C@H]2CCc3c(-c4cccc5c4CC[C@@H]5Oc4ccc(CNC[C@@H](O)CC(=O)O)c(OCc5cncc(C#N)c5)n4)cccc32)c(Br)cc1CNC[C@@H](O)CC(=O)O [Example 678]
PD-1/PD-L1
  IC50: 0.105 nM
PD-1/PD-L1 interaction
  EC50: 264 nM
PD-L1
  AC50: 254 nM

## Cc1c(COc2cc(OCc3cncc(C#N)c3)c(CNC[C@@H](O)CC(=O)O)cc2Cl)cccc1-c1cccc(-c2cc3c(cc2F)C(N(C)C)CC3)c1C (stereo partly drawn) [Example 372, (3S)-4-((5-chloro-2-((5-cyanopyridin-3-yl)methoxy)-4-((3′-(1-(dimethylamino)-6-fluoro-2,3-dihydro-1H-inden-5-yl)-2,2′-dimethyl-[1,1′-biphenyl]-3-yl)methoxy)benzyl)amino)-3-hydroxybutanoic acid]
PD-1/PD-L1
  IC50: 1.13 nM
PD-1/PD-L1 interaction
  EC50: 860 nM
PD-L1
  AC50: 425 nM

## COc1cc(OCc2cccc(-c3cccc(COc4cc(OC)c(CNC[C@@H](O)CC(=O)O)cc4C#N)c3C)c2C)c(C#N)cc1CNC[C@@H](O)CC(=O)O [Example 523]
PD-1/PD-L1
  IC50: 0.295 nM
PD-1/PD-L1 interaction
  EC50: 129 nM
PD-L1
  AC50: ≥ 10000 nM

## COc1nc(OCc2cccc(-c3cccc(-c4ccc5c(c4)C[C@@H](N)C5)c3Cl)c2Cl)c(Br)cc1CN[C@](C)(CO)C(=O)O [Example 549]
PD-1/PD-L1
  IC50: 0.355 nM
PD-1/PD-L1 interaction
  EC50: 177 nM
PD-L1
  AC50: 54.6 nM

## Cc1c(COc2nc(OCc3cncc(C#N)c3)c(CN[C@@](C)(CO)C(=O)O)cc2Cl)cccc1-c1cccc(-c2ccc(OCCNCCO)cc2)c1C [Example 581]
PD-1/PD-L1
  IC50: 0.182 nM
PD-1/PD-L1 interaction
  EC50: 158 nM
PD-L1
  AC50: 60.3 nM

## Cc1c(COc2cc(OCc3cncc(C#N)c3)c(CN3CC[C@@H](O)C3)cc2Cl)cccc1-c1cccc(-c2ccc(OCCNC[C@@H](O)CC(=O)O)cc2)c1C [Example 309, (S)-4-((2-((3″-((2-chloro-5-((5-cyanopyridin-3-yl)methoxy)-4-(((R)-3-hydroxypyrrolidin-1-yl)methyl)phenoxy)methyl)-2′,2″-dimethyl-[1,1′:3′,1″-terphenyl]-4-yl)oxy)ethyl)amino)-3-hydroxybutanoic acid]
PD-1/PD-L1
  IC50: 0.168 nM
PD-1/PD-L1 interaction
  EC50: 240 nM
PD-L1
  AC50: 103 nM
